Results on two compounds are retold here after patent US4320117A, “Polypeptide” (Imperial Chemical Industries Limited, priority 1976, dated 1982).

Data set [1] deals with mouse hot-plate test (thermal stimulus, 56° C.). Put plainly: mouse hot-plate test. It counts as in vivo, mice. The settings on record: for mean increase in reaction time: female mice, hot plate at 56° C. The protocol: As noted above, the compound of the formula I has analgesic activity in warm-blooded animals. […] This test is carried out as follows. Groups of three female mice each weighing 22 to 25g. are used to test each compound. Each mouse is placed on a heated thermostatically-controlled copper surface at 56° C., and the time taken to react to the thermal stimulus (for example by licking its hind paws) is recorded. Normal reaction times are in the range of 3 to 5 seconds.
Each of the three mice is then dosed intravenously with 100 mg./kg. of a solution of the test compound. At 5, 10 and 30 minutes after dosing, each mouse is again placed on the hot plate and its reaction time determined. […] In this circumstance the compound is regarded as having maximum activity at this dose.
A compound producing a mean increase in reaction time of at least three seconds is regarded as active. An active compound is then retested at lower doses.
Background: Thermal pain tests record how soon the animal reacts.

A further data set has as its system cat. The settings on record: injected directly into the 3rd ventricle of the cat; cited from earlier work.

Square brackets hold non-standard residues; d marks the D form. Peptide text beside a SMILES is read from it.

For the compound `CC[C@H](C)[C@H](NC(=O)[C@H](C)NC(=O)[C@H](CC(N)=O)NC(=O)[C@H](CCCCN)NC(=O)[C@H](Cc1ccccc1)NC(=O)[C@H](CC(C)C)NC(=O)[C@@H](NC(=O)[C@@H](NC(=O)[C@H](CC(C)C)NC(=O)[C@@H]1CCCN1C(=O)[C@@H](NC(=O)[C@H](CCC(N)=O)NC(=O)[C@H](CO)NC(=O)[C@H](CCCCN)NC(=O)[C@H](CCC(=O)O)NC(=O)[C@H](CO)NC(=O)[C@@H](NC(=O)[C@H](CC(C)C)NC(=O)[C@H](Cc1ccccc1)NC(=O)CNC(=O)[C@@H](C)NC(=O)[C@@H](N)Cc1ccc(O)cc1)[C@@H](C)O)[C@@H](C)O)C(C)C)[C@@H](C)O)C(=O)N[C@H](C(=O)N[C@@H](CCCCN)C(=O)N[C@@H](CC(N)=O)C(=O)N[C@@H](C)C(=O)N[C@@H](Cc1c[nH]cn1)C(=O)N[C@@H](CCCCN)C(=O)N[C@@H](CCCCN)C(=O)NCC(=O)N[C@@H](CCC(N)=O)C(=O)O)C(C)C` [Example] (H-Y[dA]GFLTSEKSQTPLVTLFKNAIVKNAHKKGQ-OH), the “mean increase in reaction time” value in data set [1] (intravenous dose of 100 mg./kg.) is 15 s. Moreover, the “mean increase in reaction time” value in data set [1] (intravenous, 25 mg./kg.) turned out to be 6 s. Also, in data set [1] (mice, intravenous, 100 mg./kg.), the “duration of analgesic effect” value is reported as “at least 3 hours” and the signs of toxicity result is “no obvious signs of toxicity”.

Regarding “β-endorphin: residues 61-91 of the naturally-occurring lipolytic polypeptide hormone lipotropin (C-fragment of lipotropin) (YGGFMTSEKSQTPLVTLFKNAIIKNAYKKGE; Beta-endorphin; UniProt P01189 237-267, looked up)”, in the data set on cat, the analgesic properties entry is listed as “possesses analgesic properties”.
